Measurements: ChEMBL document CHEMBL4428104, “Synthesis and antibacterial evaluation of hamacanthin B analogues” (2016)
Values after ≈ are worked out from the molar mass of the structure shown.

Tests used:
Format in all cases: functional
[1] = tested on: Enterococcus faecalis; assay: Antibacterial activity against multidrug resistant Enterococcus faecalis 5210 after 24 hrs by two fold serial dilution method
[2] = tested on: Staphylococcus aureus; assay: Antibacterial activity against Staphylococcus aureus SG 511 after 24 hrs by two fold serial dilution method; settings: SG 511, 24 h
[3] = tested on: Escherichia coli; assay: Antibacterial activity against multidrug resistant Escherichia coli 1137 after 24 hrs by two fold serial dilution method
[4] = tested on: Staphylococcus aureus; assay: Antibacterial activity against methicillin resistant Staphylococcus aureus 3089 after 24 hrs by two fold serial dilution method; settings: Staphylococcus aureus, 3089, 24 h
[5] = Enterococcus faecalis, 5210, 24 h

Compound | MIC [1, 5] | MIC [2] | MIC ([3]; Escherichia coli, 1137, 24 h) | MIC [4] | MIC [1] | MIC [3]
O=C1NC[C@H](c2c[nH]c3ccccc23)N[C@@H]1c1c[nH]c2cc(Br)ccc12 | > 40 µg/mL | 20 µg/mL (≈ 48.9 µM) | > 40 µg/mL | > 40 µg/mL | – | –
CN(C)[C@@H]1C(O)=C(C(N)=O)C(=O)[C@@]2(O)C(O)=C3C(=O)c4c(O)cccc4[C@@](C)(O)[C@H]3C[C@@H]12 [TETRACYCLINE] | – | 0.16 µg/mL (≈ 0.36 µM) | – | – | – | –
O=C1NC[C@@H](c2c[nH]c3cc(Br)ccc23)N[C@H]1c1c[nH]c2cc(Br)ccc12 [CIS-3,4-DIHYDROHAMACANTHIN B] | 40 µg/mL (≈ 81.9 µM) | 10 µg/mL (≈ 20.5 µM) | > 40 µg/mL | 20 µg/mL (≈ 41 µM) | – | –
CN[C@H](CC(C)C)C(=O)N[C@H]1C(=O)N[C@@H](CC(N)=O)C(=O)N[C@H]2C(=O)N[C@H]3C(=O)N[C@H](C(=O)N[C@H](C(=O)O)c4cc(O)cc(O)c4-c4cc3ccc4O)[C@H](O)c3ccc(c(Cl)c3)Oc3cc2cc(c3O[C@@H]2O[C@H](CO)[C@@H](O)[C@H](O)[C@H]2O[C@H]2C[C@](C)(N)[C@H](O)[C@H](C)O2)Oc2ccc(cc2Cl)[C@H]1O [VANCOMYCIN] | 2.5 µg/mL (≈ 1.73 µM) | – | – | 1.25 µg/mL (≈ 0.863 µM) | – | –
O=C1NC[C@H](c2c[nH]c3cc(Br)ccc23)N[C@@H]1c1c[nH]c2cc(Br)ccc12 | > 40 µg/mL | 20 µg/mL (≈ 41 µM) | > 40 µg/mL | 40 µg/mL (≈ 81.9 µM) | – | –
O=C(NCC(=O)c1c[nH]c2ccccc12)C(=O)c1c[nH]c2cc(Br)ccc12 | > 40 µg/mL | > 40 µg/mL | > 40 µg/mL | > 40 µg/mL | – | –
CCn1cc(C(=O)O)c(=O)c2cc(F)c(N3CCNCC3)cc21 [NORFLOXACIN] | – | – | 1.25 µg/mL (≈ 3.91 µM) | > 40 µg/mL | – | –
O=c1[nH]cc(-c2c[nH]c3ccccc23)nc1-c1c[nH]c2cc(Br)ccc12 | > 40 µg/mL | 2.5 µg/mL (≈ 6.17 µM) | > 40 µg/mL | 20 µg/mL (≈ 49.4 µM) | – | –
O=C(NCC(=O)c1c[nH]c2cc(Br)ccc12)C(=O)c1c[nH]c2cc(Br)ccc12 | > 40 µg/mL | > 40 µg/mL | > 40 µg/mL | > 40 µg/mL | – | –
O=C1NC[C@@H](c2c[nH]c3ccccc23)N[C@H]1c1c[nH]c2cc(Br)ccc12 | > 40 µg/mL | 40 µg/mL (≈ 97.7 µM) | > 40 µg/mL | > 40 µg/mL | – | –
O=c1[nH]cc(-c2c[nH]c3cc(Br)ccc23)nc1-c1c[nH]c2cc(Br)ccc12 | 20 µg/mL (≈ 41.3 µM) | 10 µg/mL (≈ 20.7 µM) | > 40 µg/mL | 20 µg/mL (≈ 41.3 µM) | – | –
GENTAMICIN | – | – | – | – | > 40 µg/mL | > 40 µg/mL
